Assays:
[1] = Toxicity (maximum tolerated dose) in SCID mice; format: in vivo; details: for Weight loss at higher dose: SCID mice; for Weight loss or other signs of toxicity: female SCID mice, intravenously, daily, 5-times a week for 2 weeks
Description: These experiments established the maximum tolerated doses (MTD).

[2] = test system: RS4;11 xenograft tumors; experiment: Apoptosis induction in RS4;11 xenograft tumors; format: in vivo, SCID mice; details: RS4;11 model, single dose
Description: (§1) Compounds 150, 133, and 169 were tested for their toxicity in severe combined immunodeficiency (SCID) mice. SCID mice bearing xenograft tumors were treated with vehicle control, or a single dose of a compound, and tumors were removed at different time-points for western blot analysis of cleavage of PARP (CL-PARP) and caspase-3 (CL Cas-3). The ability of compounds 150 and 169 to induce apoptosis at their MTD in RS4;11 or H146 xenograft tumors in SCID mice was tested. In these experiments, RS4;11 or H146 tumors were allowed to grow to 200-300 mm^3 in female SCID mice. A single dose of the compound was administered to the animals and tumor tissues were analyzed for cleavage of PARP and caspase-3.

[3] = test system: H146 xenograft tumors; experiment: Apoptosis induction in H146 xenograft tumors; format: in vivo, SCID mice
Description: as §1

[4] = test system: H146 xenograft tumors; experiment: Antitumor activity in the H146 xenograft tumor model; format: in vivo
Description: The antitumor activity of compound 169 in the H146 xenograft tumor model also was tested. […] At the end of the treatment (day 39), compound 169 inhibited the tumor growth by 100% (p<0.0001, t-test).

[5] = test system: RS4;11 cells; experiment: Cell growth assay (WST-8), RS4;11; format: cell-based; details: Homo sapiens, RS4-11, 96 h; Table 3, 4 days; read-out: Cell Growth Inhibition (IC50 ± SD) RS4; 11
Description: (§2) RS4;11 and H146 cells were seeded in 96-well cell culture plates at a density of 10,000 cells/well with serially diluted compounds and incubated at 37° C. in an atmosphere of 95% air and 5% CO2 for 4 days. Cell viability was determined using the WST-8 (2-(2-methoxy-4-nitrophenyl)-3-(4-nitrophenyl)-5-(2,4-disulfophenyl)-2H-tetrazolium, monosodium salt) based Cell Counting-8 Kit (Dojindo Molecular Technologies, Inc., Rockville, Md.) according to the manufacture's instruction. Briefly, WST-8 was added to each well at a final concentration of 10% (v/v), and then the plates were incubated at 37° C. for 1˜2 hours for color development. The absorbance was measured at 450 nm using a SPECTRAmax PLUS plate reader (Molecular Devices, Sunnyvale, Calif.). The half maximal inhibitory concentration (IC50) was calculated using the GraphPad Prism 5 software (GraphPad Software, La Jolla, Calif.).

[6] = test system: H146 cells; experiment: Cell growth assay (WST-8), H146; format: cell-based; details: Homo sapiens, NCI-H146, 96 h; Table 3, 4 days; read-out: Cell Growth Inhibition (IC50 ± SD) H146
Description: as §2

[7] = test system: ML-2 acute myeloid leukemia (AML) cell line; experiment: Cell growth assay (WST-8), ML-2; format: cell-based; details: Table 3; read-out: Cell Growth Inhibition (IC50 ± SD) ML-2
[8] = test system: H146 small-cell lung cancer cell line; experiment: Cell death assay (trypan blue), H146; format: cell-based; details: for H146 cells undergoing cell death: 24-hr treatment, trypan blue
Description: Cell death assay was performed using a Trypan blue exclusion test of cell viability. One million cells were seeded in 6-well plates and incubated at 37° C. in an atmosphere of 95% air and 5% CO2 with or without compounds for the indicated time points. At the end of treatment, cells were collected and centrifuged at 1000 rpm for 5 minutes. The cell pellets were re-suspended in PBS and mixed with 0.4% Trypan blue (Invitrogen) at 1:1 dilution to determine cell viability using Olympus CKX41 microscope (Olympus, Center Valley, Pa.).

[9] = test system: ML-2 AML cell line; experiment: Apoptosis assay (Annexin-V/PI flow cytometry), ML-2; format: cell-based; details: 300 nM, 24 hr
Description: (§3) Apoptosis assay was performed using the Annexin-V-FLUOS Staining kit (Roche Diagnostics, Indianapolis, Ind.) according to the manufacturer's instruction. Briefly, cells were treated with compounds for the indicated time points, harvested and washed with PBS. Cells were stained with Annexin V-FITC and Propidium iodide for 15 minutes at room temperature in the dark before analyzed with a BD Biosciences FACSCaliburs (Becton Dickinson).

[10] = test system: RS4;11 cell line; experiment: Apoptosis assay (Annexin-V/PI flow cytometry), RS4;11; format: cell-based; details: for RS4;11 cells undergoing apoptosis: within 4 hrs
Description: as §3

[11] = test system: RS4;11 cell line; experiment: Western blot of PARP and caspase-3 cleavage, RS4;11; format: cell-based; details: as low as 100 nM, 8-hr treatment
Description: (§4) Cells were lysed with lysis buffer (PBS containing 1% NP40, 0.5% Na-deoxycholate, and 0.1% SDS) supplemented with protease inhibitors (α-complete, Roche). The protein extracts were quantified using a calorimetric assay (Bradford Reagent) (BioRad, Hercules, Calif.). Proteins were electrophoresed onto 4-20% SDS-PAGE gels (Invitrogen) and transferred onto polyvinylidene difluoride membranes (Bio-Rad). Following blocking in 5% milk, membranes were incubated with a specific primary antibody, washed, and incubated with horseradish peroxidase-linked secondary antibody (Pierce). The signals were visualized with the chemiluminescent horseradish peroxidase antibody detection reagent (Denville Scientific).

[12] = test system: H146 cell line; experiment: Western blot of PARP and caspase-3 cleavage, H146; format: cell-based; details: as low as 100 nM, 8-hr treatment
Description: as §4

[13] = test system: ML-2 cell line; experiment: Western blot of PARP and caspase-3 cleavage, ML-2; format: cell-based; details: as low as 100 nM, 8-hr treatment
Description: as §4

[14] = test system: H146 cell line; experiment: Cytochrome c and Smac release assay, H146; format: cell-based; details: H146, 300 nM, within 2 hr
Description: (§5) Four million of H146 or RS4;11 cells were treated with compounds at 37° C. in an atmosphere of 95% air and 5% CO2 for the indicated time points, washed with PBS and re-suspended in 100 μl of digitonin buffer (75 mM NaCl, 8 mM Na2HPO4, 1 mM NaH2PO4, 1 mM EDTA, 350 μg/ml digitonin, and 250 mM sucrose). Cytosolic fractions were separated from organelle membrane fraction by centrifugation at 13,000 rpm for 1 min. The cytosolic fractions were resolved on a 12% SDS-PAGE and probed using anti-cytochrome c antibody (BD Biosciences) and anti-Smac (Cell Signaling Technology, Danvers, Mass.) antibody.
(§6) Potent and bona fide Bcl-2/Bcl-xL inhibitors are predicted to induce apoptosis in cancer cells by binding to cellular Bcl-2 and Bcl-xL proteins, antagonizing their anti-apoptotic function and triggering rapid release of Smac and cytochrome c from mitochondria. Furthermore, the release of Smac and cytochrome c should take place before apoptosis. Accordingly, compound 150 was tested for its ability to induce cytochrome c and Smac release in the RS4;11 and H146 cell lines.

[15] = test system: RS4;11 cell line; experiment: Cytochrome c and Smac release assay, RS4;11; format: cell-based; details: RS4;11, 100 nM, within 30 minutes
Description: as §5, §6

[16] = test system: cellular Bcl-2/Bcl-xL; experiment: Competitive pull-down against Biotin-150 in ML-2 and H146 cell lysates; format: binding; details: competitive experiment
[17] = biological target: Bcl-2 (Homo sapiens, UniProt P10415); experiment: FP-based binding assay, Bcl-2
Bcl-2, sequence (P10415 whole entry): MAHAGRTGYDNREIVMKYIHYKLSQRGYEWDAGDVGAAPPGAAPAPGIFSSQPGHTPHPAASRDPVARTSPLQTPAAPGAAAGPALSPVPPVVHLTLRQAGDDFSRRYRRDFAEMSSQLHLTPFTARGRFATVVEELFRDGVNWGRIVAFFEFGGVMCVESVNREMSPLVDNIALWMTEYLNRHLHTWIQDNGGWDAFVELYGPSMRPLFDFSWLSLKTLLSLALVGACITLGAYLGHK

[18] = biological target: Bcl-xL (Homo sapiens, UniProt Q07817); experiment: FP-based binding assay, Bcl-xL; details: Table 2, FP-based assay
Bcl-xL, sequence (Q07817 whole entry): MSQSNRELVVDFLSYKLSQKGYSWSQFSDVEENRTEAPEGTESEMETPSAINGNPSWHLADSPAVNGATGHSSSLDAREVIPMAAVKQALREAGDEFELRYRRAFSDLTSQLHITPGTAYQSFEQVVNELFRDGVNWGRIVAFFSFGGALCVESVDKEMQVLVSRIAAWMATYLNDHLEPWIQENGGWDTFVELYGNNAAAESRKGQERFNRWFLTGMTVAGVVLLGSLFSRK

**Q.** What does the source list for Cc1c(C(=O)O)c(-c2cccc(N3CCN(c4ccc(NS(=O)(=O)c5ccc(N[C@H](CCN6CCC(O)CC6)CSc6ccccc6)c(S(=O)(=O)C(F)(F)F)c5)cc4)CC3)c2)c(-c2ccc(Cl)cc2)n1C.Cl [Compound 169, (R)-5-(4-chlorophenyl)-4-(3-(4-(4-(4-((4-(4-hydroxypiperidin-1-yl)-1-(phenylthio)butan-2-yl)amino)-3-((trifluoromethyl)sulfonyl)phenylsulfonamido)phenyl)piperazin-1-yl)phenyl)-1,2-dimethyl-1H-pyrrole-3-carboxylic acid]?
**A.** Weight loss at higher dose ([1]; 75 mg/kg): caused weight loss; Weight loss or other signs of toxicity [1]: no or minimal weight loss or other signs of toxicity; Cleavage of PARP and caspase-3 in tumor tissues [2]: strong effect in induction of cleavage of PARP and caspase-3; Cleavage of PARP and caspase-3 in xenograft tumor tissues ([3]; H146, single-dose 50 mg/kg IV, 3 hr and 6 hr-time points): induced cleavage of PARP and caspase-3; Cleavage of PARP and caspase-3 in tumor tissues ([3]; H146 model, single dose): strong effect in induction of cleavage of PARP and caspase-3; Tumor growth inhibition versus vehicle-treated tumors ([4]; day 53, 2 weeks after the treatment was stopped, p=0.0001): 79%; Other signs of toxicity ([4]; during the entire experiment): no other signs of toxicity; Weight loss ([4]; during the entire experiment): < 3%; Tumor growth inhibition ([4]; end of the treatment (day 39), p<0.0001): 100%

**Q.** For Cc1c(C(=O)NCCCN2CCN(C)CC2)c(-c2cccc(N3CCN(c4ccc(NS(=O)(=O)c5ccc(N[C@H](CCN(C)C)CSc6ccccc6)c([N+](=O)[O-])c5)cc4)CC3)c2)c(-c2ccc(Cl)cc2)n1C [Compound 150], which IC50 [5] is on record?
**A.** 38 ± 24 nM

**Q.** What about the IC50 [6] of the same compound?
**A.** 102 ± 44 nM

**Q.** And the IC50 [7]?
**A.** 185 ± 84 nM

**Q.** And the “H146 cells undergoing cell death” value ([8]; 30 nM)?
**A.** 40%

**Q.** And the “H146 cells undergoing cell death” value ([8]; 100 nM)?
**A.** > 70%

**Q.** And the “Cell death induction in H146” value ([8]; trypan blue assay)?
**A.** effectively induced cell death

**Q.** And the “ML-2 cells undergoing apoptosis” value [9]?
**A.** about 50%

**Q.** And the “RS4;11 tumor cells undergoing apoptosis” value ([10]; 100 nM, 16 hr time-point)?
**A.** > 50%

**Q.** And the “RS4;11 cells undergoing apoptosis” value ([10]; 100 nM, Annexin-V/PI)?
**A.** 30%

**Q.** What about the “RS4;11 cells undergoing apoptosis” value ([10]; 300 nM, Annexin-V/PI) of the same compound?
**A.** 60%

**Q.** What about the “Apoptosis induction in RS4;11” value ([10]; time- and dose-dependent, Annexin-V/PI) of the same compound?
**A.** highly effective in induction of apoptosis

**Q.** And the “Cleavage of PARP and caspase-3” value [11]?
**A.** highly effective in induction of cleavage of PARP and caspase-3

**Q.** And the “Cleavage of PARP and caspase-3” value [12]?
**A.** highly effective in induction of cleavage of PARP and caspase-3

**Q.** And the “Cleavage of PARP and caspase-3” value [13]?
**A.** highly effective in induction of cleavage of PARP and caspase-3

**Q.** And the “Release of cytochrome c and Smac from mitochondria” value [14]?
**A.** strong release of cytochrome c and Smac

**Q.** And the “Release of cytochrome c and Smac from mitochondria” value [15]?
**A.** robust release of cytochrome c and Smac

**Q.** And the “Blocking of interaction of cellular Bcl-2/Bcl-xL with Biotin-150” value [16]?
**A.** blocked the interaction of cellular Bcl-2/Bcl-xL and Biotin-150 in a dose-dependent manner

**Q.** And the “Weight loss at higher dose” value ([1]; 50 mg/kg)?
**A.** caused weight loss

**Q.** What about the “Weight loss or other signs of toxicity” value ([1]; 25 mg/kg) of the same compound?
**A.** no or minimal weight loss or other signs of toxicity

**Q.** What about the Ki [17] of the same compound?
**A.** < 1 nM

**Q.** What about the IC50 ([17]; read-out: Bcl-2 IC50 ± SD, Table 2, FP-based assay) of the same compound?
**A.** 2 ± 0.6 nM

**Q.** What about the IC50 ([18]; read-out: Bcl-xL IC50 ± SD) of the same compound?
**A.** 9 ± 2 nM

**Q.** And the Ki ([18]; read-out: Bcl-xL Ki ± SD, no unit printed in this row)?
**A.** 2.4 ± 0.5 nM
